Measured values from patent US6106822A, “Hormone and growth factor phosphoglycokine mimetics from mycobacterium” (University College of London, priority 1995, dated 2000).

Experiments:
isolated adipocytes = experiment: lipogenesis assay (incorporation of labelled glucose into lipids of isolated adipocytes); assay type: cell-based, rat; settings: 10 μl of stock solution in final volume of 1.25 ml
Description: The activation of lipogenesis is monitored by measuring the incorporation of uniformly labelled glucose into lipids of isolated adipocytes as described by Rodbell in J. Biol. Chem. (1964) 239, 375-380.
For the lipogenesis assay, 10 μl of the stock solution is added to a final volume of 1.25 ml.

[1] = infusion; normal rats given a glucose load or streptozotocin-treated rats; cited from earlier work

Row | Compound | Lipogensis (% stimulation) (isolated adipocytes) | activity of glycogen synthase I [1] | plasma glucose [1]
1 | Insulin | 273% |  | 
2 | OC1C(O)C(O)C(O)C(O)C1O (stereo not drawn) [chiro-inositol] |  | enhanced activity of glycogen synthase I | decreased plasma glucose
